In US9458430B2, “Differentiation of pluripotent stem cells” (Janssen Biotech, Inc., priority 2010, dated 2016):

Columns and labels:
Type in all cases: cell-based
[1] = tested on: human embryonic stem cells line H1; experiment: Real-time PCR of pancreatic related genes in H1 cells differentiated by the Example 1 protocol
Method: FIGS. 1A to 1H show real-time PCR data obtained from samples obtained from cells at stages III-IV, of the protocol outlined in Example 1, for PAX4 (FIG. 1A), NGN3 (FIG. 1B), PDX1 (FIG. 1C), NEUROD (FIG. 1D), NKX6.1 (FIG. 1E), CDX2 (FIG. 1F), and Albumin (FIG. 1G). The y-axis is fold expression over undifferentiated H1 cells.
Cells of the human embryonic stem cells line H1 (p40-p50) were cultured on MATRIGEL®-coated dishes (1:30 dilution) (BD Biosciences; Cat #356231) in MEF-CM (mouse embryonic fibroblast conditioned medium) as colonies and differentiated into pancreatic endocrine precursor cells as follows: • a. Stage I (Definitive Endoderm): Human embryonic stem cells were cultured in RPMI medium supplemented with 2% fatty acid-free BSA (Catalog#68700, Proliant, IA), and 100 ng/ml activin A (R&D Systems, MN) plus 20 ng/ml WNT-3a (Catalog#1324-WN-002, R&D Systems, MN) plus 8 ng/ml of bFGF (Catalog#100-18B, PeproTech, NJ), for one day, followed by treatment with RPMI medium supplemented with 2% BSA and 100 ng/ml activin A plus 8 ng/ml of bFGF for an additional two days, then • b. Stage II (Primitive gut tube): Cells were treated with RPMI+2% fatty acid-free BSA and 50 ng/ml FGF7, for two days, then • c. Stage III (Posterior foregut): Cells were treated with DMEM/High-Glucose supplemented with 1:200 dilution of ITS-X (Invitrogen, CA) and 0.1% BSA (Lipid Rich) (Invitrogen, Ca No. 11021-045), 50 ng/ml FGF7, 0.25 μM SANT-1, 2 μM Retinoic acid (RA) (Sigma, MO), 100 ng/ml of Noggin (R & D Systems, MN), 2.5 μM 4-[4-(4-Fluorophenyl)-1-(3-phenylpropyl)-5-pyridin-4-yl-1H-imidazol-2-yl]but-3-yn-1-ol (a P38 inhibitor disclosed in U.S. Pat. No. 6,521,655), and activin A at 20 ng/ml for five days, then • d. Stage IV (Pancreatic endocrine precursor): Cells were treated with DMEM/High-Glucose supplemented with 1:200 dilution of ITS-X (Invitrogen, CA) and 0.1% BSA (Invitrogen, Ca), 100 ng/ml Noggin, 1 μM ALK5 inhibitor (SD-208, disclosed in Molecular Pharmacology 2007 72:152-161), 500 nM TPB (α-Amyloid Precursor Protein Modulator) (Catalogue #565740, EMD, CA), and 10-100 nM of the CYP26A inhibitor N-{4-[2-Ethyl-1-(1H-1,2,4-triazol-1-yl)butyl]phenyl}-1,3-benzothiazol-2-amine, and 10-100 nM Vitamin A (Catalogue#R7632, Sigma, MO) for four days, or
In some of the cultures, the Stage IV was extended to six days. mRNA was isolated at stages III and IV for real-time PCR analysis of pancreatic related genes.

[2] = tested on: human embryonic stem cells line H1; experiment: NGN3 immunostaining at stage IV of the Example 1 protocol; details: 100 nM of the CYP26A inhibitor vs control
[3] = tested on: human embryonic stem cells line H1; experiment: Real-time PCR of pancreatic related genes in H1 cells differentiated by the Example 2 protocol
Method: FIGS. 2A to 2E show real-time PCR data obtained from samples obtained from cells at stages III-IV, of the protocol outlined in Example 2, for NGN3 (FIG. 2A), NEUROD (FIG. 2B), CDX2 (FIG. 2C), NKX6.1 (FIG. 2D) and, PDX1 (FIG. 2E). The y-axis is fold expression over undifferentiated H1 cells.
Cells of the human embryonic stem cells line H1 (p40-p52) were seeded as single cells at a density of 100000 cells/cm^2 on MATRIGEL®-coated dishes (1:30 dilution) (BD Biosciences; Cat #356231) in MEF-CM (mouse embryonic fibroblast conditioned media supplemented) with 16 ng/ml of FGF2 (Catalog#100-18B, PeproTech, NJ) and 10 μM of Y27632 (Rock inhibitor, Catalogue #Y0503, Sigma, MO). 72 hours post seeding, cultures were differentiated into definitive endoderm (DE) as follows: • a. Stage I (Definitive Endoderm): Human embryonic stem cells were treated with MCDB-131 (Catalogue#10372-019, Invitrogen, CA) medium supplemented with 2% fatty acid-free BSA (Catalog#68700, Proliant, IA), 0.0025 g/ml sodium bicarbonate (Catalogue #S3187, Sigma, MO), 1× GlutaMax™ (Catalogue #35050-079, Invitrogen, Ca) and 100 ng/ml activin A (R&D Systems, MN) plus 20 ng/ml WNT-3a (Catalog#1324-WN-002, R&D Systems, MN) for one day, followed by treatment with MCDB-131 medium supplemented with 2% BSA, sodium bicarbonate, Glutamax, and 100 ng/ml activin A for an additional three days, then • b. Stage II (Primitive gut tube): Cells were treated with MCDB-131+2% fatty acid-free BSA and 50 ng/ml FGF7 and for three days, then • c. Stage III (Posterior foregut): Cells were treated with MCDB-131/High-Glucose (25 mM glucose) supplemented with 1:200 dilution of ITS-X (Invitrogen, CA), 1× GlutaMax™ (Catalogue #35050-079, Invitrogen, Ca), 0.0025 g/ml sodium bicarbonate (Catalogue #S3187, Sigma, MO), 0.1% BSA (Lipid Rich) (Invitrogen, Ca No. 11021-045), 50 ng/ml FGF7, 0.25 μM SANT-1, 2 μM Retinoic acid (RA) (Sigma, MO), 2.5 μM 4-[4-(4-Fluorophenyl)-1-(3-phenylpropyl)-5-pyridin-4-yl-1H-imidazol-2-yl]but-3-yn-1-ol (a p38 inhibitor, disclosed in U.S. Pat. No. 6,521,655), 100 nM LDN-193189 (BMP receptor inhibitor, Catalogue #04-0019, Stemgent, CA), 500 nM of the CYP26A inhibitor N-{4-[2-Ethyl-1-(1H-1,2,4-triazol-1-yl)butyl]phenyl}-1,3-benzothiazol-2-amine, and activin A at 20 ng/ml for four days, then • d. Stage IV (Pancreatic endocrine precursor): Cells were treated MCDB-131/High-Glucose (25 mM glucose) supplemented with 1:200 dilution of ITS-X (Invitrogen, CA) and 0.1% BSA (Invitrogen, Ca), 1× GlutaMax™ (Catalogue #35050-079, Invitrogen, Ca), 0.0025 g/ml sodium bicarbonate (Catalogue #S3187, Sigma, MO), 1 μM ALK5 inhibitor (SD-208, disclosed in Molecular Pharmacology 2007 72:152-161), 500 nM PDBu (PKC activator) (Catalogue #P1269, Sigma, MO), 100 nM LDN-193189 (BMP receptor inhibitor, Catalogue #04-0019, Stemgent, CA), 0.25 μM SANT-1 (#S4572, Sigma, MO), and 500 nM of the CYP26A inhibitor N-{4-[2-Ethyl-1-(1H-1,2,4-triazol-1-yl)butyl]phenyl}-1,3-benzothiazol-2-amine for seven days, or • e. Stage IV (Pancreatic endocrine precursor): Cells were treated MCDB-131/High-Glucose (25 mM glucose) supplemented with 1:200 dilution of ITS-X (Invitrogen, CA) and 0.1% BSA (Invitrogen, Ca), 1× GlutaMax™ (Catalogue #35050-079, Invitrogen, Ca), 0.0025 g/ml sodium bicarbonate (Catalogue #S3187, Sigma, MO), 1 μM ALK5 inhibitor (SD-208, disclosed in Molecular Pharmacology 2007 72:152-161), 500 nM PDBu (PKC activator) (Catalogue #P1269, Sigma, MO), 100 nM LDN-193189 (BMP receptor inhibitor, Catalogue #04-0019, Stemgent, CA), 0.25 μM SANT-1 (#S4572, Sigma, MO) for seven days.
mRNA was isolated at stages III and IV for real-time PCR analysis of pancreatic related genes. Similar to the results observed in Example 1 above, addition of CYP26A inhibitor to stage IV enhanced expression of pancreatic endocrine precursor markers, such as NGN3 and NeuroD. (See FIG. 2A to 2E).

[4] = added at stage IV, 10-100 nM, mRNA, real-time PCR, dose dependent
[5] = added at stage IV, mRNA, real-time PCR
[6] = 500 nM added to both stages III and IV
[7] = 500 nM added to stage III in the presence of retinoic acid

Question: How did the “expression of pancreatic endoderm or endocrine precursor markers” value ([1]; vitamin A 10-100 nM added along with the CYP26A inhibitor at stage IV) turn out when Vitamin A was run?
Answer: Its value is “did not significantly modify”.

Question: Which results are given for `CCC(CC)[C@H](c1ccc(Nc2nc3ccccc3s2)cc1)n1cncn1` (stereo in doubt) [CYP26A inhibitor, N-{4-[2-Ethyl-1-(1H-1,2,4-triazol-1-yl)butyl]phenyl}-1,3-benzothiazol-2-amine]?
Answer: expression of endocrine precursor marker NGN3 [1, 4]: significantly boosted; expression of endocrine precursor marker NeuroD [1, 4]: significantly boosted; expression of endocrine precursor marker Pax4 [1, 4]: significantly boosted; expression of pancreatic endoderm marker NKX6.1 [1, 4]: significantly boosted; expression of CDX2 (an intestinal marker) [1, 5]: decreased; expression of albumin (a liver marker) [1, 5]: decreased; expression of NGN3 by immunostaining [2]: significant boost; expression of NGN3 [3, 6]: further enhanced; expression of NeuroD [3, 6]: further enhanced; expression of CDX2 [3, 7]: enhancing; expression of NKX6.1 [3, 7]: significantly down regulated; expression of PDX-1 [3, 7]: significantly down regulated; expression of pancreatic endocrine precursor marker NGN3 ([3]; 500 nM added to stage IV): enhanced; expression of pancreatic endocrine precursor marker NeuroD ([3]; 500 nM added to stage IV): enhanced
